From US7062219B2, “Protein fragment complementation assays for high-throughput and high-content screening” (Odyssey Thera Inc., priority 1997, dated 2006)

Columns and labels:
Format in all cases: cell-based
[1] = test system: p53/p53 homo-dimerization; assay: Renilla luciferase PCA (RLuc PCA) for p53/p53 in HEK293T cells
Source text: Either the wild type RLuc F1 or the mutant RLuc F1(C124A) can be used in combination with the RLuc F2 fragment provided above to generate luminescent PCAs. The following examples below show the results obtained with the wild-type RLuc fragments. The F1 and F2 fragments described above were created by oligonucleotide synthesis (Blue Heron Biotechnology, Bothell, Wash.) and were designated RL[1] (aa 1–160) and RL[2] (aa 161–311). […]
STAT1/PDK2 served as a negative control PCA. […] Isolated DNAs were quantitated and then normalized to a concentration of 50 ng/microliter.
(§1) The luciferase PCA was constructed to quantify the homo-dimerization of p53 (p53/p53 PCA) and compared to a negative control RLuc PCA (Pdk2/STAT1). […] For each sample, the luminescence released was captured over 10 seconds, with a 2 second delay after addition of substrate to the sample. Data are reported as relative luminescence units (RLU), and have not been normalized to protein content.
For each condition tested, cells were transfected in quadruplicate with 0.1 microgram of total DNA (50 ng each of RL[1]-p53 and RL[2]-p53) using Fugene transfection reagent as above. […] Drug was removed by washing two times with PBS, and cell lysates were prepared as described above prior to performing a Renilla Luciferase luminescence detection assay (Promega). […]

Pdk2:STAT1 = assay: negative control RLuc PCA (Pdk2/STAT1) in HEK293T cells; conditions: 500 nM CPT for 18 hours
Source text: STAT1/PDK2 served as a negative control PCA. The full coding sequences for p53, STAT1 and PDK2 were amplified by PCR from sequence verified full-length cDNAs. The resulting PCR products were desalted, digested with appropriate restriction enzymes to allow directional cloning, and fused in-frame to either the 5′ or 3′-end of RL[1], RL[2], RL[3] or RL[4] through a linker encoding a flexible 10 amino acid peptide (GGGGS)2 (SEQ ID No.1) to assure that the orientation/arrangement of the fusions in space is optimal to bring the fluorescent protein fragments into close proximity. DNAs from recombinant constructs were isolated using Qiagen Turbo BioRobot Prep kits (Qiagen, Chatsworth, Calif.) on a Beckman FX robotic workstation (Beckman Coulter, Fullerton, Calif.). Isolated DNAs were quantitated and then normalized to a concentration of 50 ng/microliter.
as §1, with “content. […]” for “content.”

PKB/hFt1 complex = assay: GFP PCA for PKB/hFt1 in COS-1 cells, fluorometric analysis and microscopy; conditions: 10% serum or 20 μg/ml insulin, 30 min
Source text: (§2) DNA Constructs. The full-length cDNAs encoding PKB, PDK1, PKCalpha, the catalytic subunit of PKA (PKAc), GSK3beta, BAD, Caspase 9 and FKHRL1 were amplified by PCR and subcloned into the eukaryotic expression vector pMT3 [Kaufman, 1989 #23], 5′ of the F[2] fragment of GFP. GFP[1] corresponds to amino acids 1 to 158 and GFP[2] to amino acids 159 to 239 of GFP and was amplified by PCR from pCMS-EGFP (Clontech). The PKB-GFP[2] fusion was also inserted in a pMT3 vector where the ampicillin resistance gene has been replaced by a chloramphenicol resistance gene (pMT3-chloramphenicol) for the purpose of the cDNA library screen. In all cases, a 10 amino acid flexible linker consisting of (GGGGS)2 (SEQ ID No.1) was inserted between the cDNA and the GFP fragments to assure that the orientation/arrangement of the fusions in space is optimal to bring the protein fragments into close proximity. […]
(§3) COS-1 cells were split in 12-well plates 24 h before transfection. […] The relative amount of reconstituted GFP, a measure of the interaction between the fused protein partners, was detected by fluorometric analysis. […] The background fluorescence intensity corresponding to non-transfected cells was subtracted from the fluorescence intensities of all of the samples. The sub-cellular location of the hFt1/PKB and hFt1/PDK1 protein-protein complexes was also determined by fluorescence microscopy in live cells. […]

PDK1/hFt1 complex = assay: GFP PCA for PDK1/hFt1 in COS-1 cells, fluorometric analysis and microscopy; conditions: 10% serum or 20 μg/ml insulin, 30 min
Source text: as §2, §3

| Compound | increase in luminescence relative to vehicle (0.1% DMSO) ([1]; 500 nM CPT for 18 hours, HEK293T lysates) [%] | effect on the p53/p53 interaction in the RLuc PCA (in words) ([1]; FIG. 3(B)) | effect on luminescence of the negative control PCA (Pdk2:STAT1) | amount of the PKB/hFt1 complexes (fluorescence) (PKB/hFt1 complex) | subcellular location of PKB/hFt1 complexes (PKB/hFt1 complex) | amount of the PDK1/hFt1 complexes (fluorescence) (PDK1/hFt1 complex) | subcellular location of PDK1/hFt1 complexes (PDK1/hFt1 complex) |
| --- | --- | --- | --- | --- | --- | --- | --- |
| CC[C@@]1(O)C(=O)OCc2c1cc1n(c2=O)Cc2cc3ccccc3nc2-1 [camptothecin] | 27 | induction | no effect | – | – | – | – |
| insulin: insulin (Roche Diagnostics), pathway stimulus | – | – | – | increase | redistribution of the protein-protein complexes from the cytosol to the membrane | increase | redistribution of the protein-protein complexes from the cytosol to the membrane |
